Series [1] in a line: Immobilized artificial membrane (IAM) binding. In kind it is physicochemical. From the text:
(§1) Physicochemical analyses of compounds were completed at GSK.

Another series addresses NOD2 (Homo sapiens, UniProt Q9HC29). Description: MDP-stimulated IL-8 release in 293/hNOD2 cells. The following applies: HEK293 stably expressing human NOD2, IL-8 released into medium. In kind it is cell-based.
The nature of series [2]: Chromatographic hydrophobicity index (Chrom log D). The following applies: pH 7.4. In kind it is physicochemical.
From the text: as §1

Another series is described as follows: CLND solubility. The following applies: phosphate buffered saline with 5% DMSO, pH 7.4, aqueous buffer, kinetic from dmso stock; 5% DMSO pH7.4 phosphate buffered saline. In kind it is physicochemical.
From the text: as §1

In a further series the target is T1, endogenous NOD1 (Homo sapiens, UniProt Q9Y239).
T1 construct: Compound activity on endogenous NOD1 and NOD2 receptors was determined; host or cells: HCT116
T1 sequence (Q9Y239 1-953): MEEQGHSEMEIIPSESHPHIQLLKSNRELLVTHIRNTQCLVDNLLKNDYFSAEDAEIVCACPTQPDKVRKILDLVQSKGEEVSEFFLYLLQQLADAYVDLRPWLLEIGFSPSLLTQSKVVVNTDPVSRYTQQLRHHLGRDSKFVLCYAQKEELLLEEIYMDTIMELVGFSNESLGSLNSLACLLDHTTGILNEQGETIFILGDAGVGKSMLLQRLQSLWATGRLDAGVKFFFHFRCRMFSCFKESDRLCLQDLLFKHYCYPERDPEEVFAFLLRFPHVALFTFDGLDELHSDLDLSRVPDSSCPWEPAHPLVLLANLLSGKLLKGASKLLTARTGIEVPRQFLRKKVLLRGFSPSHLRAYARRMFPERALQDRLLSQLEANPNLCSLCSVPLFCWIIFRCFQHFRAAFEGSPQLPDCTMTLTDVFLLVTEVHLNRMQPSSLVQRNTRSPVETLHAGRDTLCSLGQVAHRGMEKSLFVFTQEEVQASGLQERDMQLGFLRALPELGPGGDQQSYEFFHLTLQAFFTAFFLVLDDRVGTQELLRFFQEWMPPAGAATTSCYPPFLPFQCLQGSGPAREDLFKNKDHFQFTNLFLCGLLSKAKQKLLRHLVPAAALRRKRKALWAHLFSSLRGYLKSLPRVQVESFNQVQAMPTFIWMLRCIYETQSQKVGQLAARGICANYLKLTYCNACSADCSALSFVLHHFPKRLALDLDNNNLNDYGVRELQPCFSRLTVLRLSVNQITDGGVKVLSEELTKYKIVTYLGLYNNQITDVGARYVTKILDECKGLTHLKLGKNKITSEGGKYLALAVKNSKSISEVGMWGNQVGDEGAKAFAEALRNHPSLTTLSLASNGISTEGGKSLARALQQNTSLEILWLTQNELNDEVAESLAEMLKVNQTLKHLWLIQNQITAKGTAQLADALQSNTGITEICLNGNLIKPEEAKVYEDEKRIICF
In words: Tri-DAP-stimulated IL-8 release in HCT116 cells. The settings on record: for IC50: human colon carcinoma cells, IL-8 released into medium; for inhibition of Tri-DAP-stimulated IL-8 secretion: HCT116, increasing concentrations (16 nM–16 µM). In kind it is cell-based. The method, then:
For assay, cells were seeded into 96 well plates (90,000 cells/well) in DMEM containing 1% FBS and pre-incubated with compounds for 1 hour before addition of either 25 µg/mL Tri-DAP or 1 µg/mL MDP. The level of IL-8 released into medium after 24-hour incubation was determined by HTRF assay (Cisbio) as described above and fluorescence measured on an Envision model 2102 multilabel plate reader (Perkin Elmer). The activity of compounds against NOD1-induced type I interferon response was determined by inhibition of Tri-DAP stimulated IP-10 secretion in HT-29 cells, maintained in the same medium as for HCT116 cells. The HT-29 cells were seeded into 96 well plates (60,000 cells/well) in DMEM with 1% FBS, pre-incubated with compounds for 1 hour and stimulated for 24 hours with 50 µg/mL Tri-DAP. The concentration of IL-8 released into the medium was measured by HTRF as above, IP-10 was measured using the IP-10/CXCL10 Quantikine ELISA kit (R&D Systems), and IFNβ was measured using the MA6000 human IFN-β tissue culture kit (Meso Scale Discovery).

The target of a further series is human serum albumin (Homo sapiens, UniProt P02768). Description: Human serum albumin (HSA) binding. In kind it is in vitro ADME.
From the text: as §1

Another series addresses T2, full length human RIP2 (Homo sapiens, UniProt O43353).
T2 construct: autophosphorylation of full length human FLAG-6His tagged RIP2 expressed and purified from baculovirus; FLAG; 6His; made in house
In words: RIP2 kinase autophosphorylation (ADP-Glo). In kind it is biochemical. The following applies: RIPK2 autophosphorylation. The protocol: Direct effects of compounds on RIP2 kinase activity was determined by autophosphorylation of full length human FLAG-6His tagged RIP2 expressed and purified from baculovirus. Enzyme was pre-incubated with compounds in assay buffer (50 mM HEPES pH 7.5, 25 mM MgCl2, 0.05%[w/v] CHAPS, 1 mM DTT and 0.05 mg/mL BSA) in 384-well plates, and then incubated with 10 µM ATP for 2 hours at room temperature. The amount of ADP generated was measured using the ADP-Glo universal ADP detection assay for kinases (Promega) and luminescence quantified on a ViewLux imager.
For orientation: In ADP-Glo the light output rises with the ADP produced.

The target in the next series is TLR2 (Homo sapiens, UniProt O60603). In words: Pam2CSK4-stimulated IL-8 release in 293/hTLR2 cells. The settings on record: IL-8 released into medium. In kind it is cell-based.
The target of another series is T3, NOD1 (Homo sapiens, UniProt Q9Y239).
T3 sequence (Q9Y239 1-953): T1 sequence (Q9Y239 1-953)
Description: Tri-DAP-stimulated IL-8 secretion in primary human monocytes. In kind it is cell-based. Further details: Monocytes were purified from heparinized human whole blood; endogenous in cells; host or cells: primary human blood monocytes. The following applies: human primary peripheral blood monocytes, IL-8 released into medium; read-out: IC50 Monocyte Tri-DAP. The protocol:
Monocytes were purified from heparinized human whole blood by centrifugation on Ficoll (Histopaque 1077) followed by Percoll gradients. Monocyte purity was >95% by morphological assessment of Wright’s stained cytospins. Cells were seeded at 100,000 per well in 96-well plates in RPMI containing 10%HI-FBS, pre-incubated for 1 hour with compounds, and then stimulated with either 25 µg/mL Tri-DAP or 1 µg/mL MDP. The concentration of IL-8 in medium samples collected after 24-hour treatment was determined by HTRF whereas IL-1β, IL-6 and TNFα were measured using the MS6000 human pro-inflammatory-4 II tissue culture kit (Meso Scale Discovery).

A further series has as its system α1-acid glycoprotein. In words: α1-acid glycoprotein (AGP) binding. In kind it is in vitro ADME.
From the text: as §1

≈ marks a conversion by molar mass, not a printed value.

For orientation: IC50 means the concentration that gives 50% inhibition. For orientation: chromatographic logD means lipophilicity estimated from chromatographic retention. A word on the solubility: it is the dissolved amount per volume that the medium holds. A lower solubility goes with little dissolved substance.

TLR2, sequence (O60603 21-784): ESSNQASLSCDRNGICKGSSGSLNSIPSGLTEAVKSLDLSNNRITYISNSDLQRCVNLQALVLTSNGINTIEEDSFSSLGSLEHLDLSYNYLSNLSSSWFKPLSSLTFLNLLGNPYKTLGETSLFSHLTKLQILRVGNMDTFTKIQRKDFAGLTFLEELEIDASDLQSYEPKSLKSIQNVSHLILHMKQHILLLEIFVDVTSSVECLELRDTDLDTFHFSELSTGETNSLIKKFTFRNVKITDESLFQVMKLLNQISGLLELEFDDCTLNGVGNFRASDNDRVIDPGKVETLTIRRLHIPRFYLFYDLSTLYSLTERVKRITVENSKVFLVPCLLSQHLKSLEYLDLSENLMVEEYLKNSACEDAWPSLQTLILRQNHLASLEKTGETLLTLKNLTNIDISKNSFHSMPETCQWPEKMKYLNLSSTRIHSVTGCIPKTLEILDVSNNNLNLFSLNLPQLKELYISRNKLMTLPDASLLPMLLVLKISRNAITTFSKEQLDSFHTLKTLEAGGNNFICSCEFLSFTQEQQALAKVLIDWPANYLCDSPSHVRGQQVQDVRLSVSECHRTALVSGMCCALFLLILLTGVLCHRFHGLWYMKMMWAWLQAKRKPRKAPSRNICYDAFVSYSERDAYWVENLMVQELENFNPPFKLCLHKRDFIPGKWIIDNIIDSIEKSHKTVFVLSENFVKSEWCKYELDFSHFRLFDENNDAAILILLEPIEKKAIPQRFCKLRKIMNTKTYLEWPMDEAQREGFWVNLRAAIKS
T2 sequence (O43353 whole entry): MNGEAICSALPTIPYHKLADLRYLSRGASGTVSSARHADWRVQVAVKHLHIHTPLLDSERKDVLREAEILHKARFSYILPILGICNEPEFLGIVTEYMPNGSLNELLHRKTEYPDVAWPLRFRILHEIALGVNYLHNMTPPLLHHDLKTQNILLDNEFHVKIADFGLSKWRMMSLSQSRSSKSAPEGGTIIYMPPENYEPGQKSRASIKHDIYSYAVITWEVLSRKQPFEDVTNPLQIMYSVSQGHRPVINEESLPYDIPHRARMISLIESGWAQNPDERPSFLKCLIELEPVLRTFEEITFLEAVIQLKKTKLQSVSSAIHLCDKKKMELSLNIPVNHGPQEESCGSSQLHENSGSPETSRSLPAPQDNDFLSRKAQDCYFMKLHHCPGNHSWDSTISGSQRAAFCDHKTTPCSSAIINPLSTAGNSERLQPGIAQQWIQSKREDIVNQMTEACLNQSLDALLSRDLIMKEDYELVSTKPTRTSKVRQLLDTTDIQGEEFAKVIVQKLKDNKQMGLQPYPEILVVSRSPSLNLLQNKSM
human serum albumin, sequence (P02768 25-609): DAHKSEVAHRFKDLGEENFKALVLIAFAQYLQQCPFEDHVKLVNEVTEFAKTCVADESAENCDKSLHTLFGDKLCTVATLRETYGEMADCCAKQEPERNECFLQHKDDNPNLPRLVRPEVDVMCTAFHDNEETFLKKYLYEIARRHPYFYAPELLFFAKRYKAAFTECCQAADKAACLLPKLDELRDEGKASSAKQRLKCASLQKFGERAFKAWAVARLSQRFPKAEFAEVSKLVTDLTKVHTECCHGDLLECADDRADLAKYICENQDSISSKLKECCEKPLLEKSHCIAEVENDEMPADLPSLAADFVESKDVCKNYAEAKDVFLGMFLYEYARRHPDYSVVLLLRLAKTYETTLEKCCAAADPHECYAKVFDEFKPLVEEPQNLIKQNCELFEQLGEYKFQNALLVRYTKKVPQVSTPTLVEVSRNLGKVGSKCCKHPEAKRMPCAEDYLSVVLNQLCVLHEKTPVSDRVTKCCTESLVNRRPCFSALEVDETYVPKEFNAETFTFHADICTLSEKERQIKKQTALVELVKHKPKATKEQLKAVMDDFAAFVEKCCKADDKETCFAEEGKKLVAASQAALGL
NOD2, sequence (Q9HC29 whole entry): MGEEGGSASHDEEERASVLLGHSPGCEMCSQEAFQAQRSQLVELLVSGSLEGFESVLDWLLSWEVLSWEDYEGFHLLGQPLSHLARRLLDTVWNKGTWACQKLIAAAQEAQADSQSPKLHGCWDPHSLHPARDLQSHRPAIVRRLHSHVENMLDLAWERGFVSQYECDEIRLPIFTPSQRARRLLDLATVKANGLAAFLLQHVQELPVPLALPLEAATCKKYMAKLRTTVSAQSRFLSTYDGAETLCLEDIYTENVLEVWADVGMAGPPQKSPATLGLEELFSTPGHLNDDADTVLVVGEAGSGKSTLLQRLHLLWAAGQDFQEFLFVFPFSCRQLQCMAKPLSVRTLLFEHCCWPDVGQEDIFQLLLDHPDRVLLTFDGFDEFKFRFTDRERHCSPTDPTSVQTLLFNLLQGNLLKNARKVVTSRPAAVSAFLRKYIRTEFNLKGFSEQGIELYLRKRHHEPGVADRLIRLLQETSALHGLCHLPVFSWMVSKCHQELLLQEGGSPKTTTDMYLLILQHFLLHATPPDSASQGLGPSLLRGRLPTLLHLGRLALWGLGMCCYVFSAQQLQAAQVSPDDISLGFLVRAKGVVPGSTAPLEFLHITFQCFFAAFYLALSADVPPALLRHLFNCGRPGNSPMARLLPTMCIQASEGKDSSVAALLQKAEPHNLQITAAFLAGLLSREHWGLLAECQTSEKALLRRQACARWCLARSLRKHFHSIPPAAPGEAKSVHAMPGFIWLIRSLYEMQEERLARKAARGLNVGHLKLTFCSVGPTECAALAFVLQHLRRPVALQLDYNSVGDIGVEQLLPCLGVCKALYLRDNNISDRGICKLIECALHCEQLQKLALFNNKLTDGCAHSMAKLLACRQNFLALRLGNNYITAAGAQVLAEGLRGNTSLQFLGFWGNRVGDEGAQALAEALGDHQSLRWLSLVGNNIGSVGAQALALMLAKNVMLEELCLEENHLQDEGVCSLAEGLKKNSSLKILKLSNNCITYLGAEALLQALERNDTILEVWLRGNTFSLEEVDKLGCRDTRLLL

On to `Cc1ccc(S(=O)(=O)Nc2cccc(C(=O)Nc3ccc4nc(C)sc4c3)c2)cc1` [Compound 16], for which, in [1], the IAM binding is 2.45 log K. Besides, the IC50 at NOD2 was greater than 30000 nM; at endogenous NOD1 it was 60 nM; at full length human RIP2 it was greater than 50000 nM; on TLR2, greater than 50000 nM; at NOD1, 200 nM. Besides, the chromatographic logD in series [2] was 4.89. In the series “CLND solubility”, this compound gave a solubility of 14 µM (≈ 6.13 µg/mL). The compound further registered an HSA binding on human serum albumin of 97.2%. The AGP binding with α1-acid glycoprotein amounted to 85.71%.

`Cc1nc2ccccc2c(=O)n1-c1ccc(Cl)c(NS(=O)(=O)c2ccccc2F)c1` [Compound 22]: the 50% inhibitory concentration (IC50) is greater than 50000 nM on NOD2; 30 nM at endogenous NOD1; greater than 50000 nM against full length human RIP2; greater than 50000 nM on TLR2; 60 nM at NOD1.

On to `CCc1ccc(S(=O)(=O)Nc2cc(-n3c(C)nc4ccccc4c3=O)ccc2F)s1` [GSK223], for which the IAM binding in series [1] worked out at 1.68 log K. For the same compound, the IC50 on NOD2 was greater than 50000 nM; at endogenous NOD1, 400 nM; on full length human RIP2, greater than 50000 nM; on TLR2 it was greater than 50000 nM; on NOD1, 1000 nM. The chromatographic logD in series [2] was 4.27. Further, the solubility in “CLND solubility” turned out to be 327 µM (≈ 145 µg/mL). For the same compound, on endogenous NOD1, the “inhibition of Tri-DAP-stimulated IL-8 secretion” value (from here on “inhibition”) is given as “complete inhibition”. The compound also showed an HSA binding at human serum albumin of 97.38%. Moreover, the AGP binding with α1-acid glycoprotein turned out to be 80.81%.

The compound `Cc1nc2ccc(NC(=O)c3cccc(NS(=O)(=O)c4ccc(F)cc4)c3)cc2s1` [GSK966] came in with an IAM binding in series [1] of 2.38 log K. The same compound displayed a chromatographic logD in series [2] of 4.64. The same compound gave a solubility in “CLND solubility” of 41 µM (≈ 18.1 µg/mL). Further, at endogenous NOD1, the “inhibition” value is reported as “complete inhibition”. Moreover, the IC50 is 700 nM at endogenous NOD1, greater than 100000 nM against full length human RIP2, greater than 50000 nM at TLR2 and 2000 nM on NOD1. Also, the HSA binding on human serum albumin is listed as 97.14%. Further, the AGP binding in the series with α1-acid glycoprotein is given as 83.38%.

The compound `Cn1c(=O)[nH]c(=O)c2c1nc(CCSc1ccccc1)n2Cc1ccccc1` [SB711] yielded an IAM binding in [1] of 2.41 log K. The IC50 on NOD2 was greater than 50000 nM; at endogenous NOD1, 900 nM; on full length human RIP2, greater than 100000 nM; at TLR2 it was greater than 50000 nM; at NOD1, 3200 nM. Besides, in [2], the chromatographic logD is 5.95. Besides, the solubility in “CLND solubility” came out at 2 µM (≈ 0.785 µg/mL). The “inhibition” value against endogenous NOD1 is reported as “complete inhibition”. Also, at human serum albumin, the HSA binding was 95.94%.

The record behind these values is paper PMC4013053, “Identification of Selective Small Molecule Inhibitors of the Nucleotide-Binding Oligomerization Domain 1 (NOD1) Signaling Pathway” (PLoS ONE, 2014).
